Entries after “also recorded” stand apart in the source; their conditions may differ. Read-outs that look alike come from different tables or passages of the source.
Experiments:
heparin binding proteins = conditions: cited from earlier work
aFGF = molecular target: T1, aFGF (Homo sapiens, UniProt P05230); assay: Isothermal titration calorimetry, binding to aFGF; conditions: ITC
T1 construct: made in house; host or cells: E. coli

FGFR2 (bek) [1] = assay: Tyrosine phosphorylation of FGFR2 in wild-type CHO-K1 cells; assay type: cell-based, human; conditions: excess of sucrose octasulfate (0.5, 50 or 500 μM) with aFGF and heparin
Experimental: (§1) Cells were lysed and the receptor was immunoprecipitated with anti-FGFR2 antibodies. Samples were then analyzed by SDS-PAGE, transferred to nitrocellulose membranes, and tyrosine-phosphorylated proteins were detected by immunoblotting with anti-phosphotyrosine antibodies.
(§2) Wild-type CHO cells (CHO-K1), as well as heparin sulfate-deficient mutant cells (CHO-pgsD-677) which were kindly provided by Prof. J. Esko (Esko, 1991), were cultured in F-12 medium containing 7.5% FBS, 1% Ampicillin/Streptomycin and 1% glutamine. Both CHO cell lines were co-transfected with the wild-type human FGFR2 (bek) DNA in the expression vector pMJ30 (Dionne et al., 1990) (40 μg/10 cm dish) and the pSVneo resistant gene (0.5 mg/10 cm dish), using the calcium phosphate method (Chen and Okayama, 1987). Geneticin (1 mg/ml) resistant clones were screened for expression of the receptor by immunoprecipitation and immunoblotting analysis using anti-FGFR2 antibodies.
(§3) Wild-type and mutant CHO cells were starved overnight in F-12 medium containing 0.5% FBS, and stimulated with either 0.1 nM aFGF, 50 nM heparin, or both, for 5 min at 37° C. Cells were lysed, immunoprecipitated with anti-FGFR2 antibodies and analyzed by immunoblotting with anti-phosphotyrosine (anti-PTyr) antibodies.

FGFR2 (bek) [2] = assay: Tyrosine phosphorylation of FGFR2 in mutant (HSPG-deficient) CHO-pgsD-677 cells; assay type: cell-based, human
Experimental: as §1, §2, §3

bFGF = conditions: cited from earlier work
tumor cells = conditions: Wellstein et al, 1991; cited from earlier work
K-FGF = conditions: cited from earlier work
gastric mucosa = conditions: cited from earlier work
EGF = conditions: cited from earlier work
VEGF = conditions: cell culture; Kendall & Thomas, 1993; cited from earlier work

T1 sequence (P05230 whole entry): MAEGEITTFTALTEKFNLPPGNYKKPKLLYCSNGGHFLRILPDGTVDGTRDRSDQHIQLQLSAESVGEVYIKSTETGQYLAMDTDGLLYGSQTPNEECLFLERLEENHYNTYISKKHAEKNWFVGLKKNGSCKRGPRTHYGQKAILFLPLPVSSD

Molecule: Cc1ccc(C(=O)Nc2ccc(S(=O)(=O)O)c3cc(S(=O)(=O)O)cc(S(=O)(=O)O)c23)cc1NC(=O)c1cccc(NC(=O)Nc2cccc(C(=O)Nc3cc(C(=O)Nc4ccc(S(=O)(=O)O)c5cc(S(=O)(=O)O)cc(S(=O)(=O)O)c45)ccc3C)c2)c1 [Suramin]
- effect on heparin binding proteins (heparin binding proteins): inducing microagglutination of the growth factor; also recorded: inhibit a variety of heparin binding proteins

Molecule: O=S(=O)(O)OC[C@H]1O[C@@](COS(=O)(=O)O)(O[C@H]2O[C@H](COS(=O)(=O)O)[C@@H](OS(=O)(=O)O)[C@H](OS(=O)(=O)O)[C@H]2OS(=O)(=O)O)[C@@H](OS(=O)(=O)O)[C@@H]1OS(=O)(=O)O [sucrose octasulfate]
- AH of aFGF binding to heparin / heparin analog (aFGF; heparins: means ± SD of two experiments): -5.8 ± 1.2 kcal mol^-1
- Kd (aFGF; single class of binding sites, heparins: means ± SD of two experiments, read-out: KD of aFGF binding to heparin / heparin analog): 3.4 ± 1.34 µM
- Kd (aFGF; KD of aFGF binding to sucrose octasulfate): 3.4 µM
- effect on aFGF/heparin-induced receptor activation, CHO cells that express HSPG (FGFR2 (bek) [1]): inhibitory
- effect on aFGF/heparin-induced receptor activation, mutant CHO cells (FGFR2 (bek) [2]; excess of sucrose octasulfate (0.5, 50 or 500 μM) with 0.1 nM aFGF and 50 nM heparin): inhibitory; also recorded: can be inhibited
- aFGF/heparin-induced dimerization and activation of FGFR (FGFR2 (bek) [2]; statement of Section 5.1 referring to Section 7.2.8): effectively inhibits aFGF/heparin-induced dimerization and activation of FGFR
- activation of FGFR by aFGF with sucrose octasulfate in place of heparin, mutant CHO cells (FGFR2 (bek) [2]; sucrose octasulfate plus aFGF, no heparin): does not enable aFGF to activate FGFR in the mutant (HSPG-deficient) CHO cells
- protection of bFGF from acid degradation (bFGF): protect the biologic activity of bFGF against acid degradation

Molecule: Pentosan polysulfate
- growth of tumor cells in vitro (tumor cells): selective inhibition of growth of tumor cells in vitro
- K-FGF-induced growth (K-FGF; Wellstein et al., 1991): inhibited the K-FGF- induced growth
- FGF-induced angiogenesis and tumor growth (K-FGF): inhibited the FGF-induced angiogenesis and tumor growth

Molecule: sucrose octakis (hydrogen sulfate) aluminum complex [sucralfate]
- ulcer healing / wound healing (gastric mucosa; in vivo): accelerates ulcer healing without reducing gastric acid; also recorded: elevates the level of available endogenous bFGF in the ulcer bed and stimulates angiogenesis and wound healing
- epithelial proliferation (gastric mucosa; through stimulation of gastric mucosal EGF and PDGF receptors): enhances epithelial proliferation
- protection of bFGF from acid degradation (bFGF): protects bFGF from degradation by acid
- affinity to bFGF (bFGF; compared with heparin): higher affinity binding to bFGF than heparin
- EGF binding (EGF): binds EGF in a pH-dependent manner

B1: soluble Flt-1: soluble Flt-1, one of the receptors for VEGF (protein, UniProt P17948 27-758, looked up)
extracellular domain: SKLKDPELSLKGTQHIMQAGQTLHLQCRGEAAHKWSLPEMVSKESERLSITKSACGRNGKQFCSTLTLNTAQANHTGFYSCKYLAVPTSKKKETESAIYIFISDTGRPFVEMYSEIPEIIHMTEGRELVIPCRVTSPNITVTLKKFPLDTLIPDGKRIIWDSRKGFIISNATYKEIGLLTCEATVNGHLYKTNYLTHRQTNTIIDVQISTPRPVKLLRGHTLVLNCTATTPLNTRVQMTWSYPDEKNKRASVRRRIDQSNSHANIFYSVLTIDKMQNKDKGLYTCRVRSGPSFKSVNTSVHIYDKAFITVKHRKQQVLETVAGKRSYRLSMKVKAFPSPEVVWLKDGLPATEKSARYLTRGYSLIIKDVTEEDAGNYTILLSIKQSNVFKNLTATLIVNVKPQIYEKAVSSFPDPALYPLGSRQILTCTAYGIPQPTIKWFWHPCNHNHSEARCDFCSNNEESFILDADSNMGNRIESITQRMAIIEGKNKMASTLVVADSRISGIYICIASNKVGTVGRNISFYITDVPNGFHVNLEKMPTEGEDLKLSCTVNKFLYRDVTWILLRTVNNRTMHYSISKQKMAITKEHSITLNLTIMNVSLQDSGTYACRARNVYTGEEILQKKEITIRDQEAPYLLRNLSDHTVAISSSTTLDCHANGVPEPQITWFKNNHKIQQEPGIILGPGSSTLFIERVTEEDEGVYHCKATNQKGSVESSAYLTVQGTSDKSNLE
modifications: extracellular domain
notes: soluble Flt-1, one of the receptors for VEGF
- VEGF activity (VEGF): can bind and inhibit the activity of VEGF in cell culture

— patent publication US5783568A, “Methods for treating cancer and other cell proliferative diseases” (Sugen, Inc., priority 1994, dated 1998)
